Assays:
[1] = target: cap-dependent endonuclease (RNP fraction, PB1-PB2-PA complex) (Influenza A virus, UniProt P15659); assay: Measurement of cap-dependant endonuclease (CEN) inhibitory activity; format: biochemical; settings: RNP from A/WSN/33 virus, room temperature 60 minutes; read-out: CEN_IC50
[2] = system: influenza virus; assay: CPE inhibitory effect confirming assay; format: cell-based; settings: unidentified influenza virus, 72 h, read-out: CPE_EC50

Row | SMILES | IC50 [1] | EC50 [2]
1 | O=C1c2c(O)c(=O)ccn2N([C@H]2c3ccccc3CSc3ccccc32)[C@@H]2COCCN12 [III-1] | 10.9 nM | 2.1 nM
2 | O=C1c2c(O)c(=O)ccn2N([C@H]2c3ccc(F)cc3CSc3ccccc32)[C@@H]2COCCN12 [III-3] | 2.22 nM | 3.39 nM
3 | O=C1c2c(O)c(=O)ccn2N([C@@H]2c3ccccc3SCc3c(Cl)cccc32)[C@@H]2COCCN12 [III-4] | 2.81 nM | 2.08 nM
4 | O=C1c2c(O)c(=O)ccn2N([C@H]2c3ccccc3CSc3ccccc32)[C@@H]2CSCCN12 [III-5] | 10.8 nM | 4.28 nM
5 | O=C1c2c(O)c(=O)ccn2N([C@H]2c3ccccc3CSc3ccccc32)[C@@H]2CC3(CCN12)OCCO3 [III-7] | 8.09 nM | 11.5 nM
6 | O=C1c2c(O)c(=O)ccn2N([C@H]2c3ccccc3CSc3ccccc32)[C@@H]2CCOCCN12 [III-8] | 2.81 nM | 7.18 nM
7 | O=C1c2c(O)c(=O)ccn2N([C@@H]2c3ccccc3SCc3c2ccc(F)c3F)[C@@H]2CSCCN12 [III-9] | 2.17 nM | 10.9 nM
8 | O=C1c2c(O)c(=O)ccn2N([C@@H]2c3ccccc3SCc3cccc(F)c32)[C@@H]2COCCN12 [III-10] | 4.05 nM | 3.46 nM
9 | O=C1c2c(O)c(=O)ccn2N([C@@H]2c3ccccc3SCc3c(F)cc(F)cc32)[C@@H]2COCCN12 [III-11] | 13.1 nM | 9.98 nM
10 | O=C1c2c(O)c(=O)ccn2N([C@H]2c3cc(F)c(F)cc3CSc3ccccc32)[C@@H]2COCCN12 [III-12] | 2.18 nM | 3.38 nM
11 | O=C1c2c(O)c(=O)ccn2N([C@@H]2c3cccc(F)c3SCc3cccc(F)c32)[C@@H]2COCCN12 [III-13] | 3.94 nM | 4 nM
12 | O=C1c2c(O)c(=O)ccn2N([C@H]2c3cc(F)ccc3CSc3ccccc32)[C@@H]2COCCN12 [III-14] | 15 nM | 15.7 nM
13 | O=C1c2c(O)c(=O)ccn2N([C@H]2c3cc(Cl)ccc3CSc3ccccc32)[C@@H]2COCCN12 [III-15] | 37.3 nM | 16.9 nM
14 | O=C1c2c(O)c(=O)ccn2N([C@@H]2c3cccc(Cl)c3SCc3cccc(F)c32)[C@@H]2COCCN12 [III-16] | 4.33 nM | 10.2 nM
15 | O=C1c2c(O)c(=O)ccn2N([C@@H]2c3ccccc3SCc3c2cccc3C(F)(F)F)[C@@H]2COCCN12 [III-17] | 3.89 nM | 8.14 nM
16 | Cc1cccc2c1[C@H](N1[C@@H]3COCCN3C(=O)c3c(O)c(=O)ccn31)c1ccccc1SC2 [III-18] |  | 3.28 nM
17 | O=C1c2c(O)c(=O)ccn2N([C@@H]2c3ccccc3SCc3c(F)cccc32)[C@@H]2COCCN12 [III-19] |  | 1.43 nM
18 | O=C1c2c(O)c(=O)ccn2N([C@@H]2c3ccccc3SCc3cccc(Cl)c32)[C@@H]2COCCN12 [III-20] |  | 4 nM
19 | O=C1c2c(O)c(=O)ccn2N([C@@H]2c3ccccc3SCc3c2ccc(F)c3F)[C@@H]2CC(F)(F)CCN12 [III-21] | 4.06 nM | 2.7 nM
20 | C[C@@H]1COC[C@@H]2N1C(=O)c1c(O)c(=O)ccn1N2[C@@H]1c2ccccc2SCc2c1ccc(F)c2F [III-22] | 3.46 nM | 3.07 nM
21 | O=C1c2c(O)c(=O)ccn2N([C@@H]2c3ccccc3SCc3c2ccc(F)c3F)[C@@H]2CC3(CCOCC3)CCN12 [III-23] | 1.48 nM | 0.86 nM
22 | O=C1c2c(O)c(=O)ccn2N([C@@H]2c3ccccc3SCc3cccc(O)c32)[C@@H]2COCCN12 [III-24] | 13.3 nM | 24.1 nM
23 | C[C@H]1COC[C@@H]2N1C(=O)c1c(O)c(=O)ccn1N2[C@H]1c2ccc(F)cc2CSc2ccccc21 [III-30] |  | 3.01 nM
24 | CC1(C)CCN2C(=O)c3c(O)c(=O)ccn3N([C@@H]3c4ccccc4SCc4c3ccc(F)c4F)[C@@H]2C1 [III-33] |  | 2.36 nM
25 | O=C1c2c(O)c(=O)ccn2N([C@@H]2c3ccccc3SCc3c2ccc(F)c3F)[C@@H]2CC3(CCN12)CC3 [III-36] |  | 2.45 nM
26 | O=C1c2c(O)c(=O)ccn2N([C@H]2c3ccc(F)cc3CSc3ccccc32)[C@@H]2CCCCN12 [III-54] |  | 1.18 nM

— patent publication US10633397B2, “Substituted polycyclic pyridone derivatives and prodrugs thereof” (priority 2015, dated 2020)
